Like-named read-outs stand apart in the source and are kept apart here.
What was measured:
Assay in all cases: TGFα-shedding assay-based GPCR screening with chimeric Gα subunit proteins
Type in all cases: cell-based
348 GPCRs [1] = target: T1, 348 GPCRs (Homo sapiens, UniProt O00270); settings: 10µM, Favipiravir 100μM
T1 construct: expressed in transfected cells; host or cells: HEK293A

348 GPCRs [2] = target: T2, 348 GPCRs (Homo sapiens, UniProt O60755); settings: 10µM, Favipiravir 100μM
T2 construct: expressed in transfected cells; host or cells: HEK293A
T2 sequence (O60755 1-368): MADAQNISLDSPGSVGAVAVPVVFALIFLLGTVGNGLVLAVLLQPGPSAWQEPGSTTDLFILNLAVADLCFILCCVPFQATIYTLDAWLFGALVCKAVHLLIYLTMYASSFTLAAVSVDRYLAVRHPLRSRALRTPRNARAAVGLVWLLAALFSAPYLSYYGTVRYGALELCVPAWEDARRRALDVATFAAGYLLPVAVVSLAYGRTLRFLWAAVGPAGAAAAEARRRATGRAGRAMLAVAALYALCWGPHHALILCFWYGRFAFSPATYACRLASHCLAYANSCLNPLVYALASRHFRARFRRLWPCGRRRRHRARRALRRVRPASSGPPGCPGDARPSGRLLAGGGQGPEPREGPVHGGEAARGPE

348 GPCRs [3] = target: T3, 348 GPCRs (Homo sapiens, UniProt Q5T848); settings: 10µM, Favipiravir 100μM
T3 construct: expressed in transfected cells; host or cells: HEK293A
T3 sequence (Q5T848 24-1215): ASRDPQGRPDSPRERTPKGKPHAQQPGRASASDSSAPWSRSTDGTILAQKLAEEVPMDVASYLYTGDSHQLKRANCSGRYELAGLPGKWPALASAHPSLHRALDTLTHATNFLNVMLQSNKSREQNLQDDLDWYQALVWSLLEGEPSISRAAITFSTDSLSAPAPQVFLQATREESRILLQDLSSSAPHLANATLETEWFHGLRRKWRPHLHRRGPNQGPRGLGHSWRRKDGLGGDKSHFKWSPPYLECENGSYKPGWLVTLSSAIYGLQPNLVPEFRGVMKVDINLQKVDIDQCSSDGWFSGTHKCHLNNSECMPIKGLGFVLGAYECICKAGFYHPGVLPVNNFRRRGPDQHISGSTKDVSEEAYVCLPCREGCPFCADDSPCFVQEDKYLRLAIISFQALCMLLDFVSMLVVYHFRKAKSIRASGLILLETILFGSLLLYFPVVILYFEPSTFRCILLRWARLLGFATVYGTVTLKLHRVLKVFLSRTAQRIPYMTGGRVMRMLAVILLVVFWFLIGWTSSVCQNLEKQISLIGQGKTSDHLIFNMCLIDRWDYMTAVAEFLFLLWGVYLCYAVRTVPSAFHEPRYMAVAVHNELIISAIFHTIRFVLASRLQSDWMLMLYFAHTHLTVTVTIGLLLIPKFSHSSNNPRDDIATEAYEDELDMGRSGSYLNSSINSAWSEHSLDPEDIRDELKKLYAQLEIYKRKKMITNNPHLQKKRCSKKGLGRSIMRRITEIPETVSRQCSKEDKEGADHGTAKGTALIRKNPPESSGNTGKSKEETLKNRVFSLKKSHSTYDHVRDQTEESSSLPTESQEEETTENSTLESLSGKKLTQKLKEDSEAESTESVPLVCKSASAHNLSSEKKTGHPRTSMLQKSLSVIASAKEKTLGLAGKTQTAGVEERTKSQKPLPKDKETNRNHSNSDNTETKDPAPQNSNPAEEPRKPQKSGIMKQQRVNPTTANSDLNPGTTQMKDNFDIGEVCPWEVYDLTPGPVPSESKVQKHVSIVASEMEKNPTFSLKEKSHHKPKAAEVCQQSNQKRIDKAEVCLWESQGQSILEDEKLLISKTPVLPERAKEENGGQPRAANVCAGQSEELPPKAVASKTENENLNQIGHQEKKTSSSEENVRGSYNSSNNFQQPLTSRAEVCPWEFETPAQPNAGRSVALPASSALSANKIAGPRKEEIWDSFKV

348 GPCRs [4] = target: T4, 348 GPCRs (Homo sapiens, UniProt Q8IZF7)
T4 construct: expressed in transfected cells; host or cells: HEK293A
T4 sequence (Q8IZF7 1-708): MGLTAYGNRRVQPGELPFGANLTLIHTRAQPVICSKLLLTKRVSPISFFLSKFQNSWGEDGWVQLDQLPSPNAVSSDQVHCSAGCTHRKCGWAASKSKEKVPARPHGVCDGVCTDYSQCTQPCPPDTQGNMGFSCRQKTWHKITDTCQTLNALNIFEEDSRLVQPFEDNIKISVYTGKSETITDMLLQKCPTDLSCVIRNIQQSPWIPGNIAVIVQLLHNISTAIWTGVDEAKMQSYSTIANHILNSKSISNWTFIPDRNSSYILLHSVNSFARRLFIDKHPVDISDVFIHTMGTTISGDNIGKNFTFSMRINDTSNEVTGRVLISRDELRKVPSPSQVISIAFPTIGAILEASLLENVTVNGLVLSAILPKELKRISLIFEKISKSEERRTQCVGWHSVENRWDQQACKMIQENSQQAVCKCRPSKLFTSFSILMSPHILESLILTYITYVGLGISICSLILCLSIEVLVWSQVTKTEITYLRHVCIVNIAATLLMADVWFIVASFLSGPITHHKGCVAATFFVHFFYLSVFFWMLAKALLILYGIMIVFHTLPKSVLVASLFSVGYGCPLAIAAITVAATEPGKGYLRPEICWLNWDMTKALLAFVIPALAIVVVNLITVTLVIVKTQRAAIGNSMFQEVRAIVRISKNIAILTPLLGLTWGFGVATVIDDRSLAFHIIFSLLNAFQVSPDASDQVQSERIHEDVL

348 GPCRs [5] = target: T5, 348 GPCRs (Homo sapiens, UniProt Q96RI0); settings: 10µM, Favipiravir 100μM
T5 construct: expressed in transfected cells; host or cells: HEK293A
T5 sequence (Q96RI0 18-385): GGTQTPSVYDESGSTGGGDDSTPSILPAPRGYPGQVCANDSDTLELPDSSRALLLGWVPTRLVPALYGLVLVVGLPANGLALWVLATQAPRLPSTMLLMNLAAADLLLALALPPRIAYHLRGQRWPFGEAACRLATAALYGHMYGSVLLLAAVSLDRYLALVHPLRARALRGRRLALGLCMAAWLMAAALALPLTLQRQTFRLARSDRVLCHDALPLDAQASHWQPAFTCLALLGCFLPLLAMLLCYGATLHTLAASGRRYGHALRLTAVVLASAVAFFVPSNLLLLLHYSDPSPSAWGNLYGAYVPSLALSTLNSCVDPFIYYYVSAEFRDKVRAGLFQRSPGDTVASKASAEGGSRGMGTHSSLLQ

[6] = GPR31 (G Protein-Coupled Receptor 31), read-out: % GPCR activation compared to TPA
[7] = GALR3 (galanin receptor 3), read-out: % GPCR activation compared to TPA
[8] = GPR158 (G Protein-Coupled Receptor 158), read-out: % GPCR activation compared to TPA
[9] = GPCR GPR111 (G-protein-coupled receptor 111 (ADGRF2)), read-out: % GPCR activation compared to TPA
[10] = F2RL3 (coagulation factor II (thrombin) receptor-like 3), read-out: % GPCR activation compared to TPA
[11] = read-out: % GPCR activation compared to TPA, GPR31 (G Protein-Coupled Receptor 31)
[12] = read-out: % GPCR activation compared to TPA, GALR3 (galanin receptor 3)
[13] = read-out: % GPCR activation compared to TPA, GPR158 (G Protein-Coupled Receptor 158)
[14] = read-out: % GPCR activation compared to TPA, GPCR GPR111 (G-protein-coupled receptor 111 (ADGRF2))
[15] = read-out: % GPCR activation compared to TPA, F2RL3 (coagulation factor II (thrombin) receptor-like 3)

T1 sequence (O00270 whole entry): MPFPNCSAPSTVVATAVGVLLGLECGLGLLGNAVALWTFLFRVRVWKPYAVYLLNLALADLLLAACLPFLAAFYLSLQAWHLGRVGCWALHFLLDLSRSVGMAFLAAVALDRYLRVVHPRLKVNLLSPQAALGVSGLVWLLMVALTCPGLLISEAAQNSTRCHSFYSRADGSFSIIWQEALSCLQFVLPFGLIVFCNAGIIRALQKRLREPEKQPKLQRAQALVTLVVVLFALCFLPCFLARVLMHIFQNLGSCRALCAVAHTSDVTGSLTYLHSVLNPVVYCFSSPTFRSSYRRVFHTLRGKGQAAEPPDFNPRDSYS

Compound | activation at 100 µM (348 GPCRs [1]; [6]) [%] | activation at 100 µM (348 GPCRs [2]; [7]) [%] | activation at 10 µM (348 GPCRs [3]; [8]) [%] | activation at 10 µM (348 GPCRs [4]; [9]) [%] | activation at 10 µM (348 GPCRs [5]; [10]) [%] | activation at 100 µM (348 GPCRs [4]; GPCR GPR111 (G-protein-coupled receptor 111 (ADGRF2)), 100μM, read-out: % GPCR activation compared to TPA) [%] | activation at 100 µM (348 GPCRs [1]; [11]) [%] | activation at 100 µM (348 GPCRs [2]; [12]) [%] | activation at 10 µM (348 GPCRs [3]; [13]) [%] | activation at 10 µM (348 GPCRs [4]; [14]) [%] | activation at 10 µM (348 GPCRs [5]; [15]) [%]
NC(=O)c1nc(F)cnc1O [favipiravir, 6-fluoro-3-hydroxy-2-pyrazinecarboxamide] | -1.25 | 3.96 | 2.24 | – | -2.75 | -1.94 | – | – | – | – | –
CCC(CC)COC(=O)[C@H](C)N[P@](=O)(OC[C@H]1O[C@@](C#N)(c2ccc3c(N)ncnn23)[C@H](O)[C@@H]1O)Oc1ccccc1 [remdesivir] | – | – | – | – | – | – | -1.64 | 3.03 | 0.972 | -1.09 | -0.777
CC(C)OC(=O)[C@H](C)N[P@](=O)(OC[C@H]1O[C@@H](n2ccc(=O)[nH]c2=O)[C@](C)(F)[C@@H]1O)Oc1ccccc1 [sofosbuvir] | – | – | – | – | – | – | -0.455 | -0.187 | 3.31 | -0.382 | 1.49

Continued, in another order:

activation at 100 µM (348 GPCRs [1]; [6]) [%] | activation at 100 µM (348 GPCRs [2]; [7]) [%] | activation at 10 µM (348 GPCRs [3]; [8]) [%] | activation at 10 µM (348 GPCRs [4]; [9]) [%] | activation at 10 µM (348 GPCRs [5]; [10]) [%] | activation at 100 µM (348 GPCRs [4]; GPCR GPR111 (G-protein-coupled receptor 111 (ADGRF2)), 100μM, read-out: % GPCR activation compared to TPA) [%] | Compound | activation at 100 µM (348 GPCRs [1]; [11]) [%] | activation at 100 µM (348 GPCRs [2]; [12]) [%] | activation at 10 µM (348 GPCRs [3]; [13]) [%] | activation at 10 µM (348 GPCRs [4]; [14]) [%] | activation at 10 µM (348 GPCRs [5]; [15]) [%]
-1.59 | 2.25 | 0.213 | -2.52 | 0.403 | – | N#C[C@@]1(c2ccc3c(N)ncnn23)O[C@H](CO)[C@@H](O)[C@H]1O [GS441524] | – | – | – | – | –
-1.71 | 0.404 | 1.57 | 0.307 | 2.35 | – | CC(C)C(=O)OC[C@H]1O[C@@H](n2ccc(NO)nc2=O)[C@H](O)[C@@H]1O [molnupiravir] | – | – | – | – | –
